Reference: PubChem BioAssay AID179 (DTP/NCI, 2004)
Calls of active or inactive are those of the source.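 Rule for the calls: active = compounds giving half or more protection of infected cells from virus-caused growth loss, again on retest; inactive = the rest.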 Where a SMILES comes first, the peptide text is derived from it. [ ]: non-standard residue; d: D form. The star is where a group is joined. Phe(4-NO2) = N[CH](Cc1ccc([N+](=O)[O-])cc1)C(=O)O; Cbz = O=C(OCc1ccccc1)*

Tested on: CEM cells HIV-1 protection, formazan growth assay
Test: NCI AIDS Antiviral Assay
Conditions: for IC50: measured here: growth of uninfected CEM cells
How it was run: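 Protection of CEM cells against HIV-1 measured as cell growth via soluble formazan read-out, with five concentrations tested on both infected and uninfected cells; failure to protect may reflect toxicity.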

SMILES	EC50 [µM]	IC50 [µM]	outcome
CC(C)(C)c1cc(C2NC(=O)NC2=O)cc(C(C)(C)C)c1O (centres undefined)	> 20	> 20	–
O=c1cnn2c(n1)sc1ccc3ccccc3c12	> 50.1	> 50.1	–
COc1cc([N+](=O)[O-])c(S(=O)(=O)O)cc1-n1nc(C(=O)Nc2ccccc2)n[n+]1-c1cc(S(=O)(=O)[O-])c([N+](=O)[O-])cc1OC	> 372	288	–
CSC1(CC(=O)N2CCCCC2)C(=O)Nc2ccccc21 (centres undefined)	> 200	> 200	–
COC(=O)C1=C(C(=O)OC)C23C=CC=CC24C(C(=O)OC)=C(C(=O)OC)C4C1C3 (centres undefined)	> 447	155	–
CC(C)(C)OC(=O)NC(Cc1ccc(OCc2ccccc2)cc1)C(=O)NC(COCc1ccccc1)C(=O)Oc1c(Cl)c(Cl)c(Cl)c(Cl)c1Cl (centres undefined)	> 100	44.7	–
CCCOc1cnc([C@H]2CCC3[C@@H]4CC=C5C[C@@H](O)CC[C@]5(C)C4CC[C@@]32C)s1 (some centres undefined)	> 60.3	> 60.3	–
COc1cc([C@@H]2c3cc4c(cc3[C@H](O)[C@H]3COC(=O)[C@H]23)OCO4)cc(OC)c1OC	> 2.29	0.00479	–
COC(=O)CSc1n[nH]c(-c2ccc(O)c([N+](=O)[O-])c2)n1	> 115	> 115	–
COc1ccc(/C=C/C(=O)c2nc3ccccc3n2C)cc1	> 200	26.9	–
COc1cc(/C=N\NS(=O)(=O)c2ccc([N+](=O)[O-])cc2)c([N+](=O)[O-])cc1OC	> 33.1	> 33.1	–
CCOC(=O)C1(C/C=C\CBr)CCCC1=O (centres undefined)	> 200	33.9	–
O=C(O)c1ccc(SSc2ccc(C(=O)O)cc2)cc1	123	> 200	–
CCOC(=O)/C(=C\c1cccc(Cl)c1)C(C)=O	> 141	57.5	–
C=C1CC2OC(=O)C(=C)C2C(O)C2C(=C)CCC12 (centres undefined)	–	–	inactive
CC(C)(C)OC(=O)C(C1NC2C(=O)OCC2(CO)S1)N1C(=O)c2ccccc2C1=O (centres undefined)	> 200	> 200	–
NC1C2CC3CC(C2)CC1(N)C3 (centres undefined)	–	–	inactive
CC(C)(C)C(O)CC(O)(C(F)(F)F)C(F)(F)F (centres undefined)	> 200	> 200	–
COc1nc(C(O)C2OC(C)(C)OCC2O)[nH]c1C#N (centres undefined)	–	–	inactive
O=C1c2nc3n(c2C(=O)c2c1nc1n2CCC1)CCC3	> 200	3.72	–
CCCC/C=C(\CCCNCCCC)[Si](C)(C)C	> 479	178	–

SMILES	EC50 [µM]	IC50 [µM]	outcome
COC1/C=C/OC2(C)Oc3c(C)c(O)c4c(O)c(c(/C=N/N(C)c5ncnc6c5ncn6C5OC(CO)C(O)C5O)c(O)c4c3C2=O)NC(=O)C(C)=C/C=C/C(C)C(O)C(C)C(O)C(C)C(OC(C)=O)C1C (centres undefined)	> 200	110	–
CCOC(=O)CSc1c(C(=O)OCC)c(=O)n(-c2ccccc2)c(=S)n1-c1ccccc1	> 200	31.6	–
CC(=O)Oc1ccccc1C(=O)/C=C/c1ccccc1	> 132	12	–
CN(C)c1ccc(/C=c2\[nH]c(=O)/c(=C\c3ccc(N(C)C)cc3)[nH]c2=O)cc1	> 50.1	> 50.1	–
COc1cc(C2c3cc4c(cc3[C@H](NC(=O)c3cccs3)C3COC(=O)[C@H]23)OCO4)cc(OC)c1OC (some centres undefined)	–	–	inactive
COc1ccc(NC(=O)CC(=O)n2nc(C)c(N=Nc3cccc(C)c3)c2C)cc1	> 200	> 200	–
C=C(CBr)CCCOCc1ccccc1	> 200	105	–
C=C1CC2(CCOc3ccccc32)OC1=O (centres undefined)	> 871	4.37	–
NC(=O)N/N=C(/c1nc2ccc([N+](=O)[O-])cc2[nH]c1=O)C(O)c1ccco1 (centres undefined)	> 182	> 182	–
CCc1ccccc1C1(Br)C(=O)c2ccccc2C1=O	> 200	45.7	–
N#Cc1n[nH]n(-c2ccccc2)c1=O	> 200	> 200	–
O=C(N/C(=C\c1cccc([N+](=O)[O-])c1)c1nc2[nH]c(=S)[nH]c(=O)c2[nH]1)c1ccccc1	–	–	inactive
CCN(CC)C1=CC(=O)C(=O)c2cccnc21	–	–	inactive
COc1ccc2c(c1)CC[C@@H]1C2CC[C@]2(C)C(=C=CP(=O)(O)O)CCC12 (some centres undefined)	> 200	> 200	–
O=C(c1ccc(Cl)cc1)c1ccc(OCCSCCCCCCCCCCSCCOc2ccc(C(=O)c3ccc(Cl)cc3)cc2)cc1	> 13.8	> 13.8	–
C1=C(c2ccccc2)N2CCN=C2S1	> 200	37.2	–
O=C(Nc1ccc(Cl)c(C(F)(F)F)c1)C(=O)C(C(=O)/C=C/c1ccccc1)C1OC(=O)c2ccccc21 (centres undefined)	> 129	20.9	–
Cc1cn(C2CC(O)C(CNC(=O)NO)O2)c(=O)[nH]c1=O (centres undefined)	> 200	> 200	–
NC(=O)C1N=NSC1NC(=O)c1ccc([N+](=O)[O-])cc1 (centres undefined)	> 200	26.9	–
C=C[C@H]1[C@@H]2CCC3=CC(=O)CC[C@@H]3C2CC[C@]1(C)C(=O)O (some centres undefined)	> 200	> 200	–
Cn1c(=O)c(CC(C(=O)O)C(=O)O)nc2ccccc21	> 200	> 200	–

SMILES	EC50 [µM]	IC50 [µM]	outcome
C[N+](C)(C)CCOP(=O)([O-])OCCNC(=O)c1ccc2ccccc2c1	> 200	> 200	–
Nc1nc(N)c(Br)c(Nc2ccc(Cl)c(Cl)c2)n1	52.5	155	–
COC(=O)C(Cc1nc2ccccc2[nH]c1=O)/C(=N\NC(C)(C)C)C(=O)Nc1c(C)cc(Br)cc1C (centres undefined)	> 64.6	47.9	–
CC1=N/C(=C\c2cccs2)C(=O)O1	> 200	> 200	–
O=C(Nc1cc(Cl)c(Cl)cc1Cl)C(=O)C1C(=O)NC(=S)NC1=O	–	–	inactive
COC(=O)C1(Cc2ccc3c(c2)CCC3)Cc2ccccc2C1=O (centres undefined)	> 200	10.7	–
CCOC(=O)c1sc2[n+](c1C)C(=O)/C(=C/c1ccccc1Cl)S2	> 200	3.39	–
CC(C)(C)OC(=O)N(CCNS(=O)(=O)c1cccc2cnccc12)CCC(=O)ON1C(=O)CCC1=O	> 200	> 200	–
CCOC(=O)C[C@]1(O)[C@@H](CO[Si](C)(C)C(C)(C)C)O[C@@H](n2ccc(=O)[nH]c2=O)[C@@H]1O[Si](C)(C)C(C)(C)C	> 200	10.7	–
COC(=O)c1cc2cnc1CSCc1cnc(c(C(=O)OC)c1)CSC2	> 200	> 200	–
CCOC1C(Br)Cn2c(=O)c3cc4ccccc4cc3c(=O)n2C1C (centres undefined)	> 17.8	> 17.8	–
CN(C)C=Nc1cccc2nsnc12	> 200	> 200	–
Cc1cn(C2CC(N)C(CN)O2)c(=O)[nH]c1=O (centres undefined)	> 200	> 200	–
O=S1(=O)C(c2ccccc2)=C(O)c2cc3ccccc3nc21	–	–	inactive
C/C(=N\O)[C@H]1CC[C@H]2[C@@H]3CC[C@@H]4C/C(=N/O)CC[C@]4(C)[C@H]3[C@@](C)(O)C[C@]12C	> 200	26.9	–
S=C(c1c[nH]c2ccccc12)N1CCN(c2ccccc2)CC1	> 200	158	–
CCCCCCCCCCNC(=S)OC	–	–	inactive
N#Cc1ccc(NC(=NCC(=O)O)Nc2cccc3ccccc23)cc1	> 200	> 200	–
CC(=O)N1C(Nc2ccccc2)CCN1c1ccccc1 (centres undefined)	> 200	11.2	–
CC(C)N(C)C(=O)C12C3C4C1C1C2C3C41C#N (centres undefined)	–	–	inactive
COc1ccc2oc(C(=O)O)c3c2c1CCC3CCC(=O)O (centres undefined)	–	–	inactive

SMILES	EC50 [µM]	IC50 [µM]	outcome
O=c1cc(-c2ccccc2)oc2ccc(-c3ccc4oc(-c5ccccc5)cc(=O)c4c3)cc12	> 200	27.5	–
O=C(O)c1c2c(nc3ccccc13)CCCC2	> 398	> 398	–
CC(=O)N1c2ccccc2Sc2cc(C(O)(C(F)(F)F)C(F)(F)F)ccc21	> 200	13.5	–
COC(=O)C1=NC(=S)NC(c2ccccc2)C1c1nc2ccccc2s1 (centres undefined)	–	–	inactive
CN=C(NN)NS(=O)(=O)c1cc(C)c(Cl)cc1S	–	–	inactive
O=c1c(SCc2ccc(Cl)cc2)c(SCc2ccc(Cl)cc2)cnn1-c1ccccc1	> 14.8	3.98	–
N/N=C(\N)c1ccc(NC(=O)c2ccc(C(=O)Nc3ccc(/C(N)=N/N)cc3)cc2)cc1	> 200	93.3	–
CSCCC(NC(=O)OC(C)(C)C)C(=O)NCCNc1ccc(NCCNC(=O)C(CCSC)NC(=O)OC(C)(C)C)c2c1C(=O)c1ccccc1C2=O (centres undefined)	> 100	> 100	–
O=P1(Cc2ccccc2)C(c2ccccc2)=C(O)C2CCCC21 (centres undefined)	> 112	> 112	–
O=c1ssc2ncccc12	> 295	> 100	–
CN(C)C1CCC2(CC1)OCCO2	–	–	inactive
CC(C)(C)OC(=O)NNCC(O)COc1ccccc1 (centres undefined)	> 200	91.2	–
Cc1ccc(NC(=O)CC2SC(=Nc3cccc(Cl)c3C)NC2=O)cc1 (centres undefined)	> 240	110	–
CCOC(=O)CCC(NC(=O)OCc1ccccc1)C(=O)NC(CCC(=O)OCC)C(=O)NC(Cc1ccc([N+](=O)[O-])cc1)C(=O)NC(CCC(=O)OCC)C(=O)NC(CCC(=O)OCC)C(=O)OCC (centres undefined) (Cbz-E(OEt)E(OEt)[Phe(4-NO2)]E(OEt)E(OEt)-OEt; configuration not given here)	> 200	> 200	–
CC1CCCc2c(C#N)c(N)nc(-c3ccc(Cl)cc3)c21 (centres undefined)	> 200	26.9	–
O=C(/C=C/c1ccc(O)c(O)c1)O[C@H](C(=O)O)[C@H](OC(=O)/C=C/c1ccc(O)c(O)c1)C(=O)O	> 85.1	20	–
O=C1Nc2ccc(cc2)Cc2ccc(cc2)NC(=O)N2CCN(CC2)C(=O)Nc2ccc(cc2)Cc2ccc(cc2)NC(=O)N2CCN1CC2	> 10.7	> 10.7	–
COc1cc(C#N)c(NC(=S)N2CCN(C(=O)c3ccco3)CC2)cc1OC	> 200	120	–
COc1ccc(-c2nc3c(=O)n(C)c(=O)n(C)c3nc2-c2ccc(OC)cc2)cc1	> 200	195	–
NCc1ccccc1C1CSCSC1	> 575	288	–
CC(C)=CC[C@]12CCN(C)[C@H]1N(S(=O)(=O)c1ccccc1)c1ccccc12	> 200	135	–
